For this assay, the target named is T1, BTK (Homo sapiens, UniProt Q06187).
T1 construct: endogenous in cells; host or cells: Mino cells
T1 sequence (Q06187 whole entry): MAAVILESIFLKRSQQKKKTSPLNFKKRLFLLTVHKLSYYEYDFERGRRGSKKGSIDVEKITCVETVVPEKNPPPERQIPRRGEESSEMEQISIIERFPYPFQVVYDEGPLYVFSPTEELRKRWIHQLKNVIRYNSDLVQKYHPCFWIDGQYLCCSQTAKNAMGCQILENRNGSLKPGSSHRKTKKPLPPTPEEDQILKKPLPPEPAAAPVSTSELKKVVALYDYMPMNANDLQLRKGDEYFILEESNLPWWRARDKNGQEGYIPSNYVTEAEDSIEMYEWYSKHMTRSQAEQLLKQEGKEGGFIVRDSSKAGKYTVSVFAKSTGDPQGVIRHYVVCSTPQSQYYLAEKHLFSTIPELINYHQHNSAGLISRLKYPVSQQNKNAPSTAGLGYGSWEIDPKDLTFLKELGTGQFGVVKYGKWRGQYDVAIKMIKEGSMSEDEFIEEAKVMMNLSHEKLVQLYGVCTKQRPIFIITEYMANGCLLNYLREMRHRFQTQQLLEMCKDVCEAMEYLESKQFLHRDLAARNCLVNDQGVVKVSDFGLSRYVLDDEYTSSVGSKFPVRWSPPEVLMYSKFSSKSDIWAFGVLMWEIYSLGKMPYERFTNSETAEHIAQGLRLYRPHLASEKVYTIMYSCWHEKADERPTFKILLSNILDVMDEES
Kind of assay: BTK degradation activity test in Mino cells. It is filed as cell-based. The following applies: 16 h incubation, Western blot or Elisa. The essentials:
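Mino cells treated with a concentration series of compound for 16 h, then lysed; total protein by BCA. BTK quantified by Western blot or ELISA, degradation rate calculated against blank control, and DC50 fitted from the degradation curve.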
For orientation: A western blot detects proteins with antibodies after separation by electrophoresis.
Take `CN1CCN([C@@H]2CCCN(c3nnc(C(N)=O)c(Nc4ccc(N5CCN(CC6CCN(c7ccc8c(C9CCC(=O)NC9=O)nn(C)c8n7)C6)CC5)c(F)c4)n3)C2)C1=O` (stereo partly drawn) [Compound 214, 5-((4-(4-((1-(3-(2,6-dioxopiperidin-3-yl)-1-methyl-H-pyrazolo[3,4-b]pyridin-6-yl)pyrrolidin-3-yl)methyl)piperazin-1-yl)-3-fluorophenyl)amino)-3-((R)-3-(3-methyl-2-oxoimidazolidin-1-yl)piperidin-1-yl)-1,2,4-triazin-6-carboxamide]: the 50% degradation concentration (DC50) (in general, the concentration giving 50% degradation) is below 1 nM. The result for `CC1(c2ccc(Nc3nc(N4CCCC(N5CCN(C6CCCC6)C5=O)C4)cnc3C(N)=O)cc2)CCN(C2CN(c3cccc4c3C(=O)N(C3CCC(=O)NC3=O)C4=O)C2)CC1` (stereo not shown) [Compound 020, 5-(3-(3-cyclopentyl-2-oxoimidazolin-1-yl)piperidin-1-yl)-3-((4-(1-(1-(2-(2,6-dioxopiperidin-3-yl)-1,3-dioxoisoindol-4-yl)azetidin-3-yl)-4-methylpiperidin-4-yl)phenyl)amino)pyrazin-2-carboxamide] reads below 1 nM; that for `CC1(c2ccc(Nc3nc(N4CCCC(N5CCN(C6CCOCC6)C5=O)C4)cnc3C(N)=O)cc2)CCN(C2CN(c3ccc4c(c3)C(=O)N(C3CCC(=O)NC3=O)C4=O)C2)CC1` (stereo not shown) [Compound 004, 3-((4-(1-(1-(2-(2,6-dioxopiperidin-3-yl)-1,3-dioxoisoindol-5-yl)azetidine-3-yl)-4-methylpiperidin-4-yl)phenyl)amino)-5-(3-(2-oxo-3-(tetrahydro-2H-pyran-4-yl)imidazolin-1-yl)piperidin-1-yl)pyrazin-2-carboxamide], below 1 nM. `NC(=O)c1ncc(N2CCCC(N3CCN(C4CCCC4)C3=O)C2)nc1Nc1ccc(C2(F)CCN(CC3CCN(c4ccc5c(c4)C(=O)N(C4CCC(=O)NC4=O)C5=O)C3)CC2)cc1` (stereo not shown) [Compound 040, 5-(3-(3-cyclopentyl-2-oxoimidazolin-1-yl)piperidin-1-yl)-3-((4-(1-((1-(2-(2,6-dioxopiperidin-3-yl)-1,3-dioxoisoindolin-5-yl)pyrrolidin-3-yl)methyl)-4-fluoropiperidin-4-yl)phenyl)amino)pyrazin-2-carboxamide]: the half-maximal degradation concentration (DC50) is below 1 nM. The result for `CN1C(=O)N(C2CCCN(c3cnc(C(N)=O)c(Nc4ccc(C5(C)CCN(C6CN(c7ccc8c(c7)C(=O)N(C7CCC(=O)NC7=O)C8=O)C6)CC5)cc4)n3)C2)CC12CCC2` (stereo not shown) [Compound 011, 3-((4-(1-(1-(2-(2,6-dioxopiperidin-3-yl)-1,3-dioxoisoindol-5-yl)azetidin-3-yl)-4-methylpiperidin-4-yl)phenyl)amino)-5-(3-(5-methyl-6-oxo-5,7-diazaspirocyclo[3.4]octan-7-yl)piperidin-1-yl)pyrazin-2-carboxamide] reads below 1 nM. The result for `Cc1cc(N2CCC(CN3CCC(c4ccc(Nc5nc(N6CCC[C@@H](N7CCN(C)C7=O)C6)c(F)nc5C(N)=O)cc4F)CC3)CC2)ccc1N1CCC(=O)NC1=O` [Compound 241, (R)-3-((4-(1-((1-(4-(2,4-dioxotetrahydropyrimidin-1(2H)-yl)-3-methylphenyl)piperidin-4-yl)methyl)piperidin-4-yl)-3-fluorophenyl)amino)-6-fluoro-5-(3-(3-methyl-2-oxoimidazolidin-1-yl)piperidin-1-yl)pyrazin-2-carboxamide] reads below 1 nM; that for `CN1CCN([C@@H]2CCCN(c3nnc(C(N)=O)c(Nc4ccc(N5CCN(CC6CCN(c7ccc(N8CCC(=O)NC8=O)c8c7OCO8)CC6)CC5)c(F)c4)n3)C2)C1=O` [Compound 190, (R)-5-((4-(4-((1-(7-(2,4-dioxotetrahydropyrimidin-1(2H)-yl)benzo[d][1,3]dioxacyclopent-4-yl)piperidin-4-yl)methyl)piperazin-1-yl)-3-fluorophenyl)amino)-3-(3-(3-methyl-2-oxoimidazolidin-1-yl)piperidin-1-yl)-1,2,4-triazin-6-carboxamide], below 1 nM; that for `NC(=O)c1nnc(N2CCCC(N3CCN(c4ccccc4)C3=O)C2)nc1Nc1ccc(C2CCN(CC3CCN(c4ccc5c(c4)CN(C4CCC(=O)NC4=O)C5=O)CC3)CC2)cc1` (stereo not shown) [Compound 100, 5-((4-(1-((1-(2-(2,6-dioxopiperidin-3-yl)-1-oxoisoindol-5-yl)piperidin-4-yl)methyl)piperidin-4-yl)phenyl)amino)-3-(3-(2-oxo-3-phenylimidazolin-1-yl)piperidin-1-yl)-1,2,4-triazin-6-carboxamide], below 1 nM. Regarding `CN1CCN([C@@H]2CCCN(c3nnc(C(N)=O)c(Nc4ccc(N5CCN(CC#Cc6ccc(NC7CCC(=O)NC7=O)c(F)c6)CC5)c(F)c4)n3)C2)C1=O` (stereo partly drawn) [Compound 228, 5-((4-(4-(3-(4-((2,6-dioxopiperidin-3-yl)amino)-3-fluorophenyl)propan-2-yn-1-yl)piperazin-1-yl)-3-fluorophenyl)amino)-3-((R)-3-(3-methyl-2-oxoimidazolidin-1-yl)piperidin-1-yl)-1,2,4-triazin-6-carboxamide], the DC50 is below 1 nM.

Turning to `CN1CCN([C@@H]2CCCN(c3nnc(C(N)=O)c(Nc4ccc(N5CCN(CC6CCN(c7ccc(C(=O)NC8CCC(=O)NC8=O)c8c7OCO8)C6)CC5)c(F)c4)n3)C2)C1=O` (stereo partly drawn) [Compound 176, 5-((4-(4-((1-(7-((2,6-dioxopiperidin-3-yl)carbamoyl)benzo[d][1,3]dioxacyclopent-4-yl)pyrrolidin-3-yl)methyl)piperazin-1-yl)-3-fluorophenyl)amino)-3-((R)-3-(3-methyl-2-oxoimidazolidin-1-yl)piperidin-1-yl)-1,2,4-triazin-6-carboxamide], the 50% degradation concentration (DC50) is below 1 nM. In the case of `NC(=O)c1nnc(N2CCC[C@@H](N3CCN(CC(F)(F)F)C3=O)C2)nc1Nc1ccc(N2CCC(CN3CCN(c4cc5c(cc4F)C(=O)N(C4CCC(=O)NC4=O)C5=O)CC3)CC2)cc1` (stereo partly drawn) [Compound 142, 5-((4-(4-((4-(2-(2,6-dioxopiperidin-3-yl)-6-fluoro-1,3-dioxoisoindolin-5-yl)piperazin-1-yl)methyl)piperidin-1-yl)phenyl)amino)-3-((R)-3-(2-oxo-3-(2,2,2-trifluoroethyl)imidazolin-1-yl)piperidin-1-yl)-1,2,4-triazin-6-carboxamide], the DC50 was below 1 nM. To `CC1(c2ccc(Nc3nc(N4CCCC(N5CCN(C6CCCC6)C5=O)C4)cnc3C(N)=O)cc2)CCN(CC2CCN(c3ccc4c(c3)C(=O)N(C3CCC(=O)NC3=O)C4=O)C2)CC1` (stereo not shown) [Compound 034, 5-(3-(3-cyclopentyl-2-oxoimidazolin-1-yl)piperidin-1-yl)-3-((4-(1-((1-(2-(2,6-dioxopiperidin-3-yl)-1,3-dioxoisoindolin-5-yl)pyrrolidin-3-yl)methyl)-4-methylpiperidin-4-yl)phenyl)amino)pyrazin-2-carboxamide] belongs below 1 nM. As for `CC1(c2ccc(Nc3nc(N4CCCC(N5CC6CCCN6C5=O)C4)cnc3C(N)=O)cc2)CCN(C2CN(c3ccc4c(c3)C(=O)N(C3CCC(=O)NC3=O)C4=O)C2)CC1` (stereo not shown) [Compound 005, 3-((4-(1-(1-(2-(2,6-dioxopiperidin-3-yl)-1,3-dioxoisoindol-5-yl)azetidin-3-yl)-4-methylpiperidin-4-yl)phenyl)amino)-5-(3-(3-oxotetrahydro-1H-pyrrolo[1,2-c]imidazo 1-2(3H)-yl)piperidin-1-yl)pyrazin-2-carboxamide], the DC50 was below 1 nM. The result for `Cc1cc(N2CCC(CN3CCC(c4ccc(Nc5nc(N6CCC[C@@H](N7CCN(C)C7=O)C6)nnc5C(N)=O)cc4CO)CC3)CC2)ccc1N1CCC(=O)NC1=O` [Compound 237, (R)-5-((4-(1-((1-(4-(2,4-dioxotetrahydropyrimidin-1(2H)-yl)-3-methylphenyl)piperidin-4-yl)methyl)piperidin-4-yl)-3-(hydroxymethyl)phenyl)amino)-3-(3-(3-methyl-2-oxoimidazolidin-1-yl)piperidin-1-yl)-1,2,4-triazin-6-carboxamide] reads below 1 nM. To `NC(=O)c1nnc(N2CCCC(N3CCN(c4ccccc4)C3=O)C2)nc1Nc1ccc2c(c1)CCN(C1CN(c3ccc4c(c3)C(=O)N(C3CCC(=O)NC3=O)C4=O)C1)C2` (stereo not shown) [Compound 093] belongs above 1 nM; to `CN1CCN([C@@H]2CCCN(c3nnc(C(N)=O)c(Nc4ccc(N5CCN(CC6CCN(c7ccc(N8CCC(=O)NC8=O)c(C8CC8)c7)CC6)CC5)c(F)c4)n3)C2)C1=O` [Compound 194, (R)-5-((4-(4-((1-(3-cyclopropyl-4-(2,4-dioxotetrahydropyrimidin-1(2H)-yl)phenyl)piperidin-4-yl)methyl)piperazin-1-yl)-3-fluorophenyl)amino)-3-(3-(3-methyl-2-oxoimidazolidin-1-yl)piperidin-1-yl)-1,2,4-triazin-6-carboxamide], below 1 nM; to `Cc1cc(N2CCC(CN3CCN(c4ccc(Nc5nc(N6CCC[C@@H](N7CCN(C)C7=O)C6)nnc5C(N)=O)cc4F)CC3)C2)ccc1NC1CCC(=O)NC1=O` (stereo partly drawn) [Compound 206, 5-((4-(4-((1-(4-((2,6-dioxopiperidin-3-yl)amino)-3-methylphenyl)pyrrolidin-3-yl)methyl)piperazin-1-yl)-3-fluorophenyl)amino)-3-((R)-3-(3-methyl-2-oxoimidazolidin-1-yl)piperidin-1-yl)-1,2,4-triazin-6-carboxamide], below 1 nM.

Consider `CC1(c2ccc(Nc3nc(N4CCCC(N5CCN(C6CCCC6)C5=O)C4)cnc3C(N)=O)cc2)CCN(C2CN(c3ccc4c(=O)n(C5CCC(=O)NC5=O)ccc4c3)C2)CC1` (stereo not shown) [Compound 023, 5-(3-(3-cyclopentyl-2-oxoimidazolin-1-yl)piperidin-1-yl)-3-((4-(1-(1-(2-(2,6-dioxopiperidin-3-yl)-1-oxo-1,2-dihydroisoquinolin-6-yl)azetidin-3-yl)-4-methylpiperidin-4-yl)phenyl)amino)pyrazin-2-carboxamide], for which the DC50 was above 1 nM. `CC1(c2ccc(Nc3nc(N4CCCC(N5CCN(C6CCCC6)C5=O)C4)cnc3C(N)=O)cc2)CCN(C2CN(c3ccc4c(c3)C(=O)N(C3CCC(=O)NC3=O)C4=O)C2)CC1` (stereo not shown) [Compound 001, 5-(3-(3-cyclopentyl-2-oxoimidazolin-1-yl)piperidin-1-yl)-3-((4-(1-(1-(2-(2,6-dioxopiperidin-3-yl)-1,3-dioxoisoindol-5-yl)azetidin-3-yl)-4-methylpiperidin-4-yl)phenyl)amino)pyrazin-2-carboxamide] came in with a DC50 below 1 nM.

The record behind these values is US20240360146A1, “BRUTON'S TYROSINE KINASE AND MUTANT DEGRADER, COMPOSITION AND APPLICATION THEREOF” (HANGZHOU HEALZEN THERAPEUTICS CO., LTD., priority 2021, published 2024).
